In ChEMBL document CHEMBL1201862, “PubChem BioAssay data set” (2004):
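Step 1: Grow cells in 96-well plates. Step 2: Expose to compound for 48 hours at 5 concentrations. Step 3: Interpolate endpoints linearly; if unreached, use highest concentration. The concentration for 50% growth inhibition is given as GI50.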 Activity calls are given as the source filed them. Rule as the data show it: active = GI50 up to about 1.1 µM and inactive = higher.

How the values were obtained:
Experiment in all cases: NCI-60 cell line screen, 48 h
OVCAR-3 = system: OVCAR-3
DU-145 = system: DU-145
OVCAR-8 = system: OVCAR-8
SF-539 = system: SF-539
SW-620 = system: SW-620
MDA-MB-231 = system: MDA-MB-231
A498 = system: A498
PC-3 = system: PC-3
HOP-92 = system: HOP-92
NCI-H23 = system: NCI-H23
UACC-257 = system: UACC-257
NCI-H226 = system: NCI-H226
Hs-578T = system: Hs-578T
T47D = system: T47D
MOLT-4 = system: MOLT-4
MDA-N = system: MDA-N
SK-MEL-5 = system: SK-MEL-5
KM12 = system: KM12
786-0 = system: 786-0
UO-31 = system: UO-31
ACHN = system: ACHN
NCI/ADR-RES = system: NCI/ADR-RES
SNB-75 = system: SNB-75
SNB-19 = system: SNB-19
HCC 2998 = system: HCC 2998
SK-MEL-28 = system: SK-MEL-28
LOX IMVI = system: LOX IMVI
HOP-62 = system: HOP-62
HL-60 = system: HL-60
MCF7 = system: MCF7
BT-549 = system: BT-549
SF-295 = system: SF-295
SK-OV-3 = system: SK-OV-3
RXF 393 = system: RXF 393
NCI-H522 = system: NCI-H522
A549 = system: A549
COLO 205 = system: COLO 205
UACC-62 = system: UACC-62
Malme-3M = system: Malme-3M
K562 = system: K562
HCT-116 = system: HCT-116
U-251 = system: U-251
IGROV-1 = system: IGROV-1
NCI-H460 = system: NCI-H460
CCRF-CEM = system: CCRF-CEM
CAKI-1 = system: CAKI-1
SR = system: SR
HT-29 = system: HT-29
HCT-15 = system: HCT-15
TK-10 = system: TK-10
SF-268 = system: SF-268
OVCAR-5 = system: OVCAR-5
RPMI-8226 = system: RPMI-8226
OVCAR-4 = system: OVCAR-4
MDA-MB-435 = system: MDA-MB-435
SN12C = system: SN12C
EKVX = system: EKVX
M14 = system: M14
SK-MEL-2 = system: SK-MEL-2

Measured: GI50

C=CCNC(=O)CN(CC(=O)O)C1CCCCC1N(CC(=O)O)CC(=O)O (centres undefined)
inactive: OVCAR-3 > 100 µM | DU-145 > 100 µM | OVCAR-8 > 100 µM | SF-539 > 100 µM | SW-620 > 100 µM | MDA-MB-231 > 100 µM | A498 > 100 µM | PC-3 > 100 µM | HOP-92 > 100 µM | NCI-H23 > 100 µM | UACC-257 > 100 µM | NCI-H226 > 100 µM | Hs-578T > 100 µM | T47D > 100 µM | MOLT-4 > 100 µM | MDA-N > 100 µM | SK-MEL-5 > 100 µM | KM12 > 100 µM | 786-0 > 100 µM | UO-31 > 100 µM | ACHN > 100 µM | NCI/ADR-RES > 100 µM | SNB-75 > 100 µM | SNB-19 > 100 µM | HCC 2998 > 100 µM | SK-MEL-28 > 100 µM | LOX IMVI > 100 µM | HOP-62 > 100 µM | HL-60 > 100 µM | MCF7 > 100 µM | BT-549 > 100 µM | SF-295 > 100 µM | SK-OV-3 > 100 µM | RXF 393 > 100 µM | NCI-H522 > 100 µM | A549 > 100 µM | COLO 205 > 100 µM | UACC-62 > 100 µM | Malme-3M > 100 µM | K562 > 100 µM | HCT-116 > 100 µM | U-251 > 100 µM | IGROV-1 > 100 µM | NCI-H460 > 100 µM | CCRF-CEM > 100 µM | CAKI-1 > 100 µM | SR > 100 µM | HT-29 > 100 µM | TK-10 > 100 µM | SF-268 > 100 µM | OVCAR-5 > 100 µM | RPMI-8226 > 100 µM | OVCAR-4 > 100 µM | MDA-MB-435 > 100 µM | SN12C > 100 µM
> 100 µM: HCT-15

COC(=O)[C@@H]1C[C@@H](O)CN1C(=O)c1ccc([N+](=O)[O-])cc1[N+](=O)[O-]
inactive: OVCAR-3 39.2 µM | DU-145 > 100 µM | OVCAR-8 > 100 µM | SF-539 > 100 µM | SW-620 > 100 µM | MDA-MB-231 > 100 µM | A498 > 100 µM | PC-3 > 100 µM | HOP-92 > 100 µM | NCI-H23 > 100 µM | UACC-257 > 100 µM | NCI-H226 > 100 µM | Hs-578T > 100 µM | T47D > 100 µM | MOLT-4 > 100 µM | MDA-N > 100 µM | SK-MEL-5 96.6 µM | KM12 > 100 µM | 786-0 > 100 µM | UO-31 > 100 µM | ACHN > 100 µM | NCI/ADR-RES > 100 µM | SNB-75 > 100 µM | SNB-19 > 100 µM | HCC 2998 > 100 µM | SK-MEL-28 > 100 µM | LOX IMVI > 100 µM | HOP-62 > 100 µM | HL-60 > 100 µM | MCF7 > 100 µM | BT-549 > 100 µM | SF-295 > 100 µM | SK-OV-3 > 100 µM | RXF 393 > 100 µM | EKVX > 100 µM | NCI-H522 > 100 µM | A549 > 100 µM | COLO 205 50 µM | M14 > 100 µM | UACC-62 > 100 µM | K562 > 100 µM | HCT-116 > 100 µM | U-251 > 100 µM | IGROV-1 > 100 µM | NCI-H460 > 100 µM | CCRF-CEM > 100 µM | CAKI-1 > 100 µM | SR > 100 µM | HT-29 51.2 µM | TK-10 > 100 µM | SK-MEL-2 > 100 µM | SF-268 > 100 µM | OVCAR-5 > 100 µM | RPMI-8226 > 100 µM | OVCAR-4 > 100 µM | MDA-MB-435 > 100 µM | SN12C > 100 µM
> 100 µM: HCT-15

O=c1c(C(c2cccc(C(c3c(O)oc4ccccc4c3=O)c3c(O)oc4ccccc4c3=O)c2)c2c(O)oc3ccccc3c2=O)c(O)oc2ccccc12
63.8 µM: HCT-15
inactive: OVCAR-3 35.3 µM | DU-145 39.4 µM | OVCAR-8 21.1 µM | SF-539 19.8 µM | SW-620 > 100 µM | MDA-MB-231 20.8 µM | A498 > 100 µM | PC-3 37.9 µM | HOP-92 27.7 µM | NCI-H23 22.8 µM | UACC-257 69 µM | NCI-H226 44.7 µM | Hs-578T 25.5 µM | T47D 24.3 µM | MOLT-4 29.2 µM | MDA-N 66.4 µM | SK-MEL-5 13.2 µM | KM12 30.5 µM | 786-0 17.7 µM | ACHN 36.6 µM | NCI/ADR-RES > 100 µM | SNB-75 3.73 µM | HCC 2998 15.6 µM | SK-MEL-28 > 100 µM | LOX IMVI 18.7 µM | HOP-62 30.3 µM | HL-60 21.7 µM | MCF7 13.6 µM | BT-549 27.9 µM | SF-295 41.5 µM | SK-OV-3 18.2 µM | RXF 393 > 100 µM | EKVX 67.3 µM | NCI-H522 14.5 µM | A549 60.3 µM | COLO 205 86.3 µM | M14 > 100 µM | UACC-62 29 µM | K562 27.9 µM | HCT-116 25.1 µM | U-251 26.3 µM | IGROV-1 34 µM | NCI-H460 75.2 µM | CCRF-CEM 32.4 µM | CAKI-1 16.9 µM | SR 28.4 µM | HT-29 36.9 µM | TK-10 > 100 µM | SK-MEL-2 > 100 µM | SF-268 28.4 µM | OVCAR-5 > 100 µM | RPMI-8226 33.2 µM | MDA-MB-435 86.9 µM | SN12C 22.1 µM
